Target: T1, PYL-MCP and LambdaN-ABI (Arabidopsis thaliana, UniProt Q8VZS8)
T1 construct: expressed in transfected cells; host or cells: HEK293T
Test: Split-pegRNA recording of abscisic acid (ABA)-induced dimerization of PYL-MCP and LambdaN-ABI
Format: cell-based
Details: PYL-ABI pair, abscisic acid added to cell culture
Source text: FIG. 3. Recording protein-protein interaction and small molecule exposure using Split-pegRNA recorders. a-b. Design of Split-pegRNA recorder with protein adaptors to record protein-protein interaction (a) and exposure to small molecule (b). c. Normalized editing efficiency of different pairs of constructs tagged with MCP and LambdaN adaptors. Editing efficiencies are scaled (“normalized”) to positive editing control of CTT insertion to HEK3 locus by epegRNA (“eCTT control”). In MCP-LambdaN condition, a single protein-expression construct with MCP tethered with LambdaN was transfected instead of a pair of protein-expression constructs. […]
In the past 30 years, several chemicals have been identified as critical signaling molecules for promoting protein-protein interactions^8. We reasoned that the exposure of these “molecular glue” small molecules to cells can be recorded into the genome using specifically engineered split-pegRNA recorders. […]
Sequencing reads from Illumina MiSeq™ and NextSeq™ platforms are first demultiplexed using BCL2fastq software (Illumina). […] Editing efficiencies were calculated using pattern-matching software such as Regular Expression (package REGEX) in Python, counting correct amplicon reads with or without intended edits (CTT insertion to HEK3 locus^1).

T1 sequence (Q8VZS8 other isoform, or with tags, fused parts or gaps): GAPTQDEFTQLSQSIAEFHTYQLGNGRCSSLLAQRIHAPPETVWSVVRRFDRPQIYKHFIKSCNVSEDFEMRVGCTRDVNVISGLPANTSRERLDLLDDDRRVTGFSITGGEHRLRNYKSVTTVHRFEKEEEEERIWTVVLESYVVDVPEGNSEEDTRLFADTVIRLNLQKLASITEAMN
T1 sequence (P49597 other isoform, or with tags, fused parts or gaps D143A, further chain): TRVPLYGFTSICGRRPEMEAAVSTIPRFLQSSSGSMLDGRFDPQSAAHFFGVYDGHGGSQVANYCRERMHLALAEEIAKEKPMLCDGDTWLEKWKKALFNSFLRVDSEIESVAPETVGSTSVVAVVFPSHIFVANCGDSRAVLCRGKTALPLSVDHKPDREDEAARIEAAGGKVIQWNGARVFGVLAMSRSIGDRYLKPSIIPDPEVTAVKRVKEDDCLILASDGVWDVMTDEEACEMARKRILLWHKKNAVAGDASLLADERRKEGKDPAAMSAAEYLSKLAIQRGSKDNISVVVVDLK

With `CC1=CC(=O)CC(C)(C)[C@@]1(O)/C=C/C(C)=C\C(=O)O` [Abscisic acid] the “change in editing efficiency on addition of small molecule” value was “strong increase in the editing efficiency”.

From US20260176627A1, “DUAL-RNA-GUIDED, SPLIT-PEGRNA RECORDER FOR MOLECULAR INTERACTION” (University of Washington, priority 2022, published 2026)
